Measured values from patent EP0237516A1, “Benzyl-pyrimidine derivatives, process for their preparation and compositions containing them” (COMPAGNIE ROUSSELOT, Société Anonyme:, priority 1986, dated 1987).
In brackets after ≈: the same amount, converted by molar mass. Read-outs that look alike come from different tables or passages of the source.

Assays:
[1] = system: souches de Staphylococcus aureus résistant à la triméthoprime; assay: MIC determination by serial dilution on Mueller-Hinton agar; type: cell-based; conditions: 18 h, compounds as isethionate, read-out: CMI
Escherichia coli = assay: MIC determination by serial dilution on Mueller-Hinton agar, trimethoprim-sensitive strains; type: cell-based; conditions: isethionates, read-out: CMI
Protocol: (§1) A cet effet, on a déterminé l'activité bactériostatique par la méthode des antibiogrammes par dilution en milieu gélosé (milieu de MUELLER-HINTON déshydraté) et par diffusion en milieu gélosé.
(§2) On a utilisé le composé à étudier selon une gamme de concentrations de 0,625 à 640 µg/ml (progression de raison 2) à partir de solutions-mères titrant 640 µg/ml à 1280 µg/ml selon la solubilité du composé, toutes les dilutions ultérieures ayant été réalisées dans un mélange méthanol/eau à 20%.
(§3) On a procédé sur milieu gélosé de MUELLER-HINTON déshydraté, par la méthode des dilutions sériées, les concentrations finales en composé à étudier s'échelonnant de 0,0625 à 32 ou 64 µg/ml.
(§4) A cet effet, on ensemence des boîtes de PETRI à l'aide d'un inoculateur multiple (inoculum de 5 x 10³ à 1 x 10⁴ unités formant colonies par spot d'inoculation) et on enregistre le résultat après 18 h à 37°C en ne tenant pas compte des micro-colonies qui se développent parfois ni de la présence de moins de 4 colonies d'aspect normal.

Listeria monocytogenes = assay: as above; type: cell-based; conditions: isethionates; for MIC: 18 h, Listeria monocytogenes 485, TMP-sensitive, read-out: CMI
Protocol: as §1, §2, §3, §4

Serratia marcescens = assay: as above; type: cell-based; conditions: 18 h; Serratia marcescens 56644; isethionates; read-out: CMI
Protocol: as §1, §2, §3, §4

Staphylococcus aureus = assay: as above; type: cell-based; conditions: isethionates, read-out: CMI
Protocol: as §1, §2, §3, §4

[2] = system: souches de Staphylococcus aureus résistant à la triméthoprime; assay: Bacteriostatic activity by disc diffusion on Mueller-Hinton agar; type: cell-based; conditions: 5 µg per disc, free base, read-out: Diamètre d'inhibition
Protocol: On utilise à cet effet le milieu gélosé de MUELLER-HINTON que l'on ensemence par inondation à partir d'une suspension bactérienne titrant 5 x 10⁶ à 1 x 10⁷ unités formant colonies par ml. On imprègne les disques (disque de 6 mm de diamètre de SCHLEICHER et SCHULL) avec 20 µl d'une solution de chaque composé à étudier de façon à obtenir une charge de 5 µg par disque. A titre de contrôle lors de chaque manipulation, on charge également un disque avec 5 µg de triméthoprime. On néglige également dans ce test les microcolonies qui peuvent apparaître à l'intérieur des zones d'inhibition.
On a obtenu les résultats suivants exprimés en mm d'inhibition, avec des composés de l'invention sous forme basique comparativement à la triméthoprime. Ces résultats ont été enregistrés vis-à-vis de souches de Staphylococcus aureus résistant à la triméthoprime.

[3] = system: souches de Staphylococcus aureus résistant à la triméthoprime; assay: MIC determination by serial dilution on Mueller-Hinton agar; type: cell-based; conditions: 18 h, from hospitalised patients, compounds as free base, read-out: CMI
Protocol: as §1, §2, §3, §4
Les composés sous forme basique, des Exemples 1 et 4 ont été étudiés comparativement à la triméthoprime (TMP) à l'égard de 4 souches provenant de malades hospitalisés.
A cet effet, on a solubilisé les composés à étudier sous forme basique dans un mélange comprenant 9 ml d'eau distillée, 1 ml de diméthylformamide et quelques gouttes d'acide iséthionique.

bacilles à Gram - = assay: Activity in association with sulfamethoxazole; type: cell-based
From the text: (§5) L'action du composé de l'Exemple 21 a été étudiée comparativement à l'iséthionate de triméthoprime vis-à-vis de 73 souches de bacilles à Gram -. Des résultats trouvés, on a pu conclure que 33 souches étaient résistantes au sel de triméthoprime et 65 souches étaient résistantes au composé de l'Exemple 21.
Par contre, si on associe chacun de ces composés au sulfaméthoxazole, le spectre d'activité de l'association composé de l'Exemple 21/-sulfaméthoxazole est similaire à celui de l'association de triméthoprime/ sulfaméthoxazole.

[4] = system: 73 souches de bacilles à Gram -; assay: Activity against Gram-negative bacilli, count of resistant strains; type: cell-based; conditions: number of resistant strains out of 73 Gram-negative bacilli strains
From the text: as §5

[5] = Acute toxicity, intravenous; conditions: mouse, in vivo; mice, groups of 5, intravenous route; read-out: DL₅₀
Protocol: La toxicité aiguë des composés de l'invention a été déterminée sur des lots de 5 souris par voie intraveineuse. On a ainsi trouvé que la DL₅₀du composé de l'Exemple 9, selon cette voie d'administration, est de 157,4 mg/kg.

[6] = ATCC25922, 18 h, Escherichia coli ATCC 25922
[7] = Listeria monocytogenes 378, TMP-sensitive
[8] = 18 h, Staphylococcus aureus 18839, TMP-sensitive
[9] = ATCC6338, 18 h, Staphylococcus aureus ATCC 6338, TMP-sensitive
[10] = ATCC25923, 18 h, Staphylococcus aureus ATCC 25923, TMP-sensitive
[11] = strain No. 23543, TMP-resistant
[12] = strain No. 33274, TMP-resistant
[13] = strain No. 40314, TMP-resistant
[14] = strain No. 57760, TMP-resistant
[15] = Listeria monocytogenes 5921, TMP-sensitive
[16] = Listeria monocytogenes 6777, TMP-sensitive

Row | SMILES | MIC ([1]; strain No. 82, TMP-resistant) | MIC ([1]; strain No. 87, TMP-resistant) | MIC ([1]; strain No. 101, TMP-resistant) | MIC ([1]; strain No. 102, TMP-resistant) | MIC (Escherichia coli; 18 h, Escherichia coli 33430) | MIC (Escherichia coli; [6]) | MIC (Listeria monocytogenes) | CMI (Listeria monocytogenes; [7]) | MIC (Serratia marcescens) | MIC (Staphylococcus aureus; [9]) | MIC (Staphylococcus aureus; [10]) | zone of inhibition at 5 µg/disc [2, 11] | zone of inhibition at 5 µg/disc [2, 12] | zone of inhibition at 5 µg/disc [2, 13] | zone of inhibition at 5 µg/disc [2, 14] | MIC [3, 11] | MIC [3, 12] | MIC [3, 13] | MIC [3, 14] | MIC ([1]; strain No. 107, TMP-resistant) | other results
1 | COc1cc(Cc2cnc(N)nc2N)ccc1OC1CCCC1 [Composé X, reference compound] | 32 µg/mL (≈ 102 µM) | 8 µg/mL (≈ 25.4 µM) | 32 µg/mL (≈ 102 µM) | 32 µg/mL (≈ 102 µM) | > 64 µg/mL | > 64 µg/mL | 0.25 µg/mL (≈ 0.795 µM) | 0,25 µg/ml | 32 µg/mL (≈ 102 µM) | 0.25 µg/mL (≈ 0.795 µM) | 1 µg/mL (≈ 3.18 µM) | – | – | – | – | – | – | – | – | – | MIC (Staphylococcus aureus; [8]): 0.5 µg/mL (≈ 1.59 µM)
2 | CCOc1cc(I)c(Cc2cnc(N)nc2N)cc1OC [Ex. 1, diamino-2,4 (iodo-2 éthoxy-4 méthoxy-5 benzyl)-5 pyrimidine] | – | – | – | – | – | – | – | – | – | – | – | 19 mm | 32 mm | 32 mm | 24 mm | 2 µg/mL (≈ 5 µM) | < 0.06 µg/mL | 0.12 µg/mL (≈ 0.3 µM) | 1 µg/mL (≈ 2.5 µM) | – | –
3 | COc1cc(Cc2cnc(N)nc2N)c(I)cc1OC1CCCC1 [Ex. 4, Diamino-2,4 (iodo-2 cyclopentyloxy-4 méthoxy-5 benzyl)-5 pyrimidine] | – | – | – | – | – | – | – | – | – | – | – | 19 mm | 29 mm | 35 mm | 20 mm | 2 µg/mL (≈ 4.54 µM) | 0.25 µg/mL (≈ 0.568 µM) | < 0.06 µg/mL | 2 µg/mL (≈ 4.54 µM) | – | –
4 | COc1cc(Cc2cnc(N)nc2N)c(I)cc1OC1CCCC1 [Ex. 18, Iséthionate de diamino-2,4 (iodo-2 cyclopentyloxy-4 méthoxy-5 benzyl)-5 pyrimidine] | 2 µg/mL (≈ 4.54 µM) | 2 µg/mL (≈ 4.54 µM) | – | 4 µg/mL (≈ 9.09 µM) | – | – | – | – | – | – | – | – | – | – | – | – | – | – | – | 4 µg/mL (≈ 9.09 µM) | –
5 | COc1cc(Cc2cnc(N)nc2N)c(Br)cc1OC1CCCC1 [Ex. 21, Iséthionate de diamino-2,4 (bromo-2 cyclopentyloxy-4 méthoxy-5 benzyl)-5 pyrimidine] | 1 µg/mL (≈ 2.54 µM) | 1 µg/mL (≈ 2.54 µM) | 2 µg/mL (≈ 5.09 µM) | 1 µg/mL (≈ 2.54 µM) | 16 µg/mL (≈ 40.7 µM) | 32 µg/mL (≈ 81.4 µM) | 0.06 µg/mL (≈ 0.153 µM) | 0,06 µg/ml | 16 µg/mL (≈ 40.7 µM) | 0.06 µg/mL (≈ 0.153 µM) | 0.5 µg/mL (≈ 1.27 µM) | – | – | – | – | – | – | – | – | 4 µg/mL (≈ 10.2 µM) | potentialisation du sulfaméthoxazole (bacilles à Gram -; compared with the trimethoprim salt): potentialise aussi bien le sulfaméthoxazole que ne le fait le sel de triméthoprime; spectre d'activité de l'association (bacilles à Gram -; in association with sulfaméthoxazole, compared with the association triméthoprime/sulfaméthoxazole): similaire; souches résistantes [4]: 65 souches; MIC ([1]; strain No. 109, TMP-resistant): 0.5 µg/mL (≈ 1.27 µM); CMI (Listeria monocytogenes; [15]): 0,06 µg/ml; CMI (Listeria monocytogenes; [16]): 0,06 µg/ml
6 | COc1cc(Cc2cnc(N)nc2N)c(Br)cc1OC1CCCCC1 [Ex. 24, Iséthionate de diamino-2,4 (bromo-2 cyclohexyloxy-4 méthoxy-5 benzyl)-5 pyrimidine] | 0.5 µg/mL (≈ 1.23 µM) | 1 µg/mL (≈ 2.46 µM) | 0.5 µg/mL (≈ 1.23 µM) | 0.5 µg/mL (≈ 1.23 µM) | > 64 µg/mL | > 64 µg/mL | 0.06 µg/mL (≈ 0.147 µM) | 0,06 µg/ml | > 64 µg/mL | 0.06 µg/mL (≈ 0.147 µM) | – | – | – | – | – | – | – | – | – | – | CMI (Listeria monocytogenes; [15]): 0,06 µg/ml; CMI (Listeria monocytogenes; [16]): 0,06 µg/ml; MIC (Staphylococcus aureus; [8]): 0.06 µg/mL (≈ 0.147 µM)
7 | CCOc1cc(I)c(Cc2cnc(N)nc2N)cc1OCC [Exemple 9, Lactobionate de diamino-2,4 (iodo-2 diéthoxy-4,5 benzyl)-5 pyrimidine] | – | – | – | – | – | – | – | – | – | – | – | – | – | – | – | – | – | – | – | – | LD50 [5]: 157 mg/kg
8 | COc1cc(Cc2cnc(N)nc2N)cc(OC)c1OC [Iséthionate de TMP, iséthionate de triméthoprime, reference compound] | 16 µg/mL (≈ 55.1 µM) | 8 µg/mL (≈ 27.6 µM) | 16 µg/mL (≈ 55.1 µM) | 16 µg/mL (≈ 55.1 µM) | 8 µg/mL (≈ 27.6 µM) | 4 µg/mL (≈ 13.8 µM) | – | – | 2 µg/mL (≈ 6.89 µM) | 0.06 µg/mL (≈ 0.207 µM) | 0.25 µg/mL (≈ 0.861 µM) | – | – | – | – | – | – | – | – | 64 µg/mL (≈ 220 µM) | souches résistantes [4]: 33 souches; MIC ([1]; strain No. 109, TMP-resistant): 8 µg/mL (≈ 27.6 µM)
9 | COc1cc(Cc2cnc(N)nc2N)cc(OC)c1OC [TMP, diamino-2,4 (triméthoxy-3,4,5 benzyl)-5 pyrimidine, reference compound] | – | – | – | – | – | – | – | – | – | – | – | 0 mm | 0 mm | 0 mm | 0 mm | 16 µg/mL (≈ 55.1 µM) | > 64 µg/mL | 64 µg/mL (≈ 220 µM) | > 64 µg/mL | – | –
